# Entries after “also recorded” stand apart in the source; their conditions may differ.
# Legend:
# [1] = test system: MDA-MB435-To.1 human Taxol-resistant breast adenocarcinoma cells; test: MDA-MB435-To.1 Taxol-resistant breast adenocarcinoma, fat pad, SCID mice (2.5); assay type: in vivo, human cells in mice
# Protocol: (§1) BxPC-3 is a gemcitabine resistant call line. […] Gemcitabine was administered intravenously every three days at a dose of 100 mg/kg. Antitumour activities were estimated by the inhibition of tumour volume, which was measured with caliper. Each point represents mean tumour volume calculated from 10 animals per experimental group. […] Hela S3 is a hydroxyurea resistant cell line. […] Hydroxyurea was administered intraperitoneally every day at a dose of 250 mg/kg for 10 days. Cisplatin was administered intravenously once a week for three weeks at a dose of 4 mg/kg. Antitumour activities were estimated by the inhibition of tumour volume, which was measured with caliper. Each point represents mean tumour volume calculated from 10 animals per experimental group. […] Cisplatin was administered intravenously once a week for three weeks at a dose of 4 mg/kg. Taxol was administered intravenously once a week for three weeks at a dose of 10 mg/kg. Antitumour activities were estimated by the inhibition of tumour volume, which was measured with caliper. Each point represents mean tumour volume calculated from 10 animals per experimental group. […] Taxol was administered i.p. once a week at a dose of 10 mg/kg. Antitumour activities were estimated by the inhibition of tumour volume (FIG. 12A), which was measured with calipers. Each point represents mean tumour volume calculated from 10 animals per experimental group. Animals were sacrificed and tumour weights taken at the end of the study (FIG. 12C). […] Cisplatin was administered intravenously once a week for four weeks at a dose of 4 mg/kg. Taxol was administered intravenously once a week for four weeks at a dose of 20 mg/kg. Antitumour activities were estimated by the inhibition of tumour volume, which was measured with caliper. Each point represents mean tumour volume calculated from 9-10 animals per experimental group. […] Cisplatin was administered intravenously once a week for four weeks at a dose of 4 mg/kg. Antitumour activities were estimated by the inhibition of tumour volume, which was measured with caliper. Each point represents mean tumour volume calculated from 10 animals per experimental group. At the end of the study the animals were sacrificed and tumours weighed. […] Taxol was administered i.p. once a week at a dose of 10 mg/kg. Anti-tumour activity was estimated by the inhibition of tumour volume, which was measured with caliper. Each point represents mean tumour volume calculated from 10 animals per experimental group. In addition animals were sacrificed and tumour weights taken at the end of the study. […] CPT-11 was administered i.p. for 5 days at a dose of 20 mg/kg/day. Antitumour activities were estimated by the inhibition of tumour volume, which was measured with caliper. Each point represents mean tumour volume calculated from 10 animals per experimental group. Tumour weights were measured after animals were sacrificed at the end of the treatment. These cells are not resistant to CPT-11 which was used as a positive control.
# [2] = test system: MDA-MB-231 human breast cancer cells; test: MDA-MB-231 breast tumour growth in CD-1 nude mice (3.3); assay type: in vivo, human cells in mice
# Protocol: Treatments lasted for 14 days thereafter. Antitumour activities were estimated by the inhibition of tumour volume, which was measured with a caliper on four different occasions over the treatment period. Each point represents mean tumour volume calculated from 5 animals per experimental group. […] Control animals (control) received saline alone for the same period. At the end of the treatments, the animals were sacrificed, tumours were excised and their weights were measured. Each bar represents mean tumour weight calculated from 6 animals per experimental group. […] Treatments lasted for 24 days thereafter. Antitumour activities were estimated by the inhibition of tumour volume, which was measured with a caliper at two-day intervals over the treatment period. Each point represents mean tumour volume calculated from 4 animals per experimental group. […] Treatments lasted for 24 days thereafter. Antitumour activities were estimated by the inhibition of tumour volume, which was measured with a caliper at two-day intervals over the treatment period. Each point represents mean tumour volume calculated from 4 animals per experimental group. […] Each point represents mean tumour volume calculated from 5 animals per experimental group. […] Antitumour activities were estimated by the inhibition of tumour volume, which was measured with a caliper on four different occasions over 16-day period. Each point represents mean tumour volume calculated from 5 animals per experimental group. […] Antitumour activities were estimated by the inhibition of tumour volume, which was measured with a caliper at two-day intervals over the treatment period. Each point represents mean tumour volume calculated from 5 animals per experimental group. […] Antitumour activities were estimated by the inhibition of tumour volume, which was measured with a caliper at various time intervals over the span of 30 days. Each point represents mean tumour volume calculated from 6 animals per experimental group. […] Antitumour activities were estimated by the inhibition of tumour volume, which was measured with a caliper. […]
# [3] = test system: MDA-CDDP-S4 human in vivo-selected Cisplatin-resistant breast adenocarcinoma cells; test: MDA-CDDP-S4 Cisplatin-resistant breast adenocarcinoma, fat pad, CB-17 SCID mice, combination with Taxol (2.4); design: species or system human cells in mice; conditions: SEQ ID NO:1 10 mg/kg i.v. every other day, Taxol 10 mg/kg i.p. weekly; for Tumour weight as % of saline control: MDA-CDDP-S4 (breast), Cisplatin resistant, SCID
# Protocol: as §1
substance,measurement,setting,value
"5′-GGCTAAATCGCTCCACCAAG-3′ (all phosphorothioate, sugars by position and methylation of C not given here) [SEQ ID NO: 1, fully phosphorothioated antisense oligonucleotide that hybridizes to the coding region of R2 mRNA]",Tumour weight as % of saline control,"[1]; MDA-MB435-To.1 (breast), Taxol resistant, SCID, SEQ ID NO:1 10 mg/kg i.v. every other day 15 times, Taxol 20 mg/kg, Cisplatin 4 mg/kg i.v. weekly x4",42%
same,Antitumour effect (FIG. 13),"[1]; MDA-MB435-To.1 Taxol-resistant, SCID mice, SEQ ID NO:1 10 mg/kg i.v. every other day, Cisplatin 4 mg/kg, Taxol 20 mg/kg i.v. weekly",significant reduction of tumour weight compared to saline control; also recorded: superior to the inhibitory effects observed with Cisplatin
same,Inhibition of tumour size,[2]; Human Breast Adenocarcinoma,Inhibition of tumour size by approximately 80%
same,Inhibition of tumour weight,"[2]; Human Breast Adenocarcinoma, Day 31 after tumour implantation",~80% on Day 31 after tumour implantation
same,"Inhibitory effect on tumour growth (tumour volume, FIG. 18B)","[2]; MDA-MB-231, CD-1 nude mice, 10 mg/kg i.v. every other day, 24 days",strong inhibitory effects on the growth of human breast carcinoma
same,Tumour weight as % of saline control,[3]; first of two printed values (study and repeat),18%
same,Tumour weight as % of saline control,[3]; second of two printed values (study and repeat),41%
same,Antitumour effect (FIG. 12),"[3]; MDA-CDDP-S4 Cisplatin-resistant, CB-17 SCID mice",significant reduction of tumour weight compared to saline control; also recorded: superior to the inhibitory effects observed with Taxol

# Reference: patent US7968526B2, “Antisense oligonucleotides directed to ribonucleotide reductase R2 and uses thereof in the treatment of cancer” (Lorus Therapeutics Inc., priority 2003, dated 2011)
